Data: ChEMBL document CHEMBL5465560, “Selectivity Literature for EUbOPEN Chemogenomic Library” (2024)
Each block holds one compound with its values, some of them ahead of it.

How the values were obtained:
Adenosine receptor A2a = Adenosine receptor A2a (Homo sapiens, UniProt P29274); experiment: Selectivity interaction (Eurofins CEREP Diversity Profile (receptors and ion channels)) EUB0000279b ADORA2A; conditions: at 10 µM
[1] = target: T1, Dual specificity protein kinase TTK (Homo sapiens) (UniProt P33981); experiment: Selectivity interaction (KinomeScan (DiscoverX)) EUB0000655a TTK; conditions: at 10 µM
T1 sequence (whole entry): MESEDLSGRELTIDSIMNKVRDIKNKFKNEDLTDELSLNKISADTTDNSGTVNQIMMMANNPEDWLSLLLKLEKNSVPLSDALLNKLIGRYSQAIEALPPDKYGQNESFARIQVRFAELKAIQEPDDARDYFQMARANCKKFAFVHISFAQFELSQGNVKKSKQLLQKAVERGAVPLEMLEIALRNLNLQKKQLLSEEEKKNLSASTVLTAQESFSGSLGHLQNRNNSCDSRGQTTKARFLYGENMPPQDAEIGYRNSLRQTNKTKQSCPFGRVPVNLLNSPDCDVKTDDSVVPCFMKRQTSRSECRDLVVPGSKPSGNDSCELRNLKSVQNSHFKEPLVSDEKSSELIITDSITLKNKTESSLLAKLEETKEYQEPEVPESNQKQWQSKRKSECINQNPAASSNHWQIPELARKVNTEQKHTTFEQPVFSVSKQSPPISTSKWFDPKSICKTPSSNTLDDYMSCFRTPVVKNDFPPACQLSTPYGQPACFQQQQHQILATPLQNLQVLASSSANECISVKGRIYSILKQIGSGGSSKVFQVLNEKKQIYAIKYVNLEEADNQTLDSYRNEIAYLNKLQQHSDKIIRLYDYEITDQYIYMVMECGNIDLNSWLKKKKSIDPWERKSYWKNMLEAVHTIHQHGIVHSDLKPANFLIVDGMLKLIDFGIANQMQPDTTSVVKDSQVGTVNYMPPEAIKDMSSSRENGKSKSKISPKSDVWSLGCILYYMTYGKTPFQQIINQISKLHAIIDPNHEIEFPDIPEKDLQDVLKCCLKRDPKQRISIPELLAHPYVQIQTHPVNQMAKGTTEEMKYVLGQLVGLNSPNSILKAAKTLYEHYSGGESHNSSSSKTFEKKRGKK

Misshapen-like kinase 1 = Misshapen-like kinase 1 (Homo sapiens, UniProt Q8N4C8); experiment: Selectivity interaction (KinomeScan (DiscoverX)) EUB0000607a MINK1; conditions: at 10 µM
[2] = target: T2, Mitogen-activated protein kinase kinase kinase 13 (Homo sapiens) (UniProt O43283); experiment: Selectivity interaction (KinomeScan (DiscoverX)) EUB0001619a MAP3K13; conditions: at 1 µM
T2 sequence (whole entry): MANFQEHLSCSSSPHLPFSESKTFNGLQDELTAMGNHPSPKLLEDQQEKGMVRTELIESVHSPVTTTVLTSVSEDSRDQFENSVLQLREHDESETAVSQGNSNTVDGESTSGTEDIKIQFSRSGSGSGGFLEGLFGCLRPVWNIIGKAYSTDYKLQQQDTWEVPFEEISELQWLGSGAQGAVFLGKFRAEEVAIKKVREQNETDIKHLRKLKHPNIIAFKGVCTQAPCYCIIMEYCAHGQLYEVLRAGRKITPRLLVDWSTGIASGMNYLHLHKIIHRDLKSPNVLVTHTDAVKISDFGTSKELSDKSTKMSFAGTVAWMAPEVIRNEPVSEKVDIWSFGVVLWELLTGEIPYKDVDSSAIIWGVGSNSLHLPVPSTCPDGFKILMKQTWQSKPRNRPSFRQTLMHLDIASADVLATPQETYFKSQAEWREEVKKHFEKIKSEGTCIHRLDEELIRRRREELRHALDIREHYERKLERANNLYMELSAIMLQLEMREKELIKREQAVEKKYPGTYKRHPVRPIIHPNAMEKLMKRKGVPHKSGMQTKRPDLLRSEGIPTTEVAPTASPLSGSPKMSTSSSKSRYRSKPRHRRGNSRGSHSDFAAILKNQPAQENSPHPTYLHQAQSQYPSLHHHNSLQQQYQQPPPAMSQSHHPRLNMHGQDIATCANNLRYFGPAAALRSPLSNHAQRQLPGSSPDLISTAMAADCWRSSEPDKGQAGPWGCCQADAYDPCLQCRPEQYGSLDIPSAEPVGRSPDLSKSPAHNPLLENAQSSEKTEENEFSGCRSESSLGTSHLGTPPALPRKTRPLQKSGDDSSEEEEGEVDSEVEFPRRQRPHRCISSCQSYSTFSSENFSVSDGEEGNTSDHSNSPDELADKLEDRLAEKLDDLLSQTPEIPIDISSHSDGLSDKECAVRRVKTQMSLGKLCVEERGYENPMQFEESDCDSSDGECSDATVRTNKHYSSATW

[3] = target: T3, Serine/threonine-protein kinase Nek3 (Homo sapiens) (UniProt P51956); experiment: Selectivity interaction (KinomeScan (DiscoverX)) EUB0000092b NEK3; conditions: at 10 µM
T3 sequence (whole entry): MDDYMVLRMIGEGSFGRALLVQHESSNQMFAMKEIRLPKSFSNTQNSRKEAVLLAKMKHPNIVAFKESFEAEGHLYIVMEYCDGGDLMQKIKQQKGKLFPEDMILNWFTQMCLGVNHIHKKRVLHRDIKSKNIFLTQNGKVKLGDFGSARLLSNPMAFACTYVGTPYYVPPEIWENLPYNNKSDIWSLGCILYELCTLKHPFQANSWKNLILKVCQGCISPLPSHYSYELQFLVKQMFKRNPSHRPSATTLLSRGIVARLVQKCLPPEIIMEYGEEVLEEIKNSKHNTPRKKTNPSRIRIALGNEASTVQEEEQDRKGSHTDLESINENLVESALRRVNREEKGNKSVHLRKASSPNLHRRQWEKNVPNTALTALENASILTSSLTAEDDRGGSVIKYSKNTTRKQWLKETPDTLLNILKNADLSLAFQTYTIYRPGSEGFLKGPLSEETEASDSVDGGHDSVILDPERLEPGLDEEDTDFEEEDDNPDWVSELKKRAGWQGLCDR

Sequence of Adenosine receptor A2a (P29274 whole entry): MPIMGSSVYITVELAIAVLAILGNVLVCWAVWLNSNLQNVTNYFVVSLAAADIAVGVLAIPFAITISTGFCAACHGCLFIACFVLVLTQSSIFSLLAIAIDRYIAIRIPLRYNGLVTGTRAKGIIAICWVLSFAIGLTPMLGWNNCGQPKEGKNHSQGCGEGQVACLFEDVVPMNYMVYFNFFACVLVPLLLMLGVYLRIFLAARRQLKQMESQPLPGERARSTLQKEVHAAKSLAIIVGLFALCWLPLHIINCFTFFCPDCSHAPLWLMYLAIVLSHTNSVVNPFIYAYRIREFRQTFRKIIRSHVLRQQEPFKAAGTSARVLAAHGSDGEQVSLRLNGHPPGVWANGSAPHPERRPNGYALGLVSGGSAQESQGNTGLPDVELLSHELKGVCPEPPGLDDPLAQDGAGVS
Sequence of Misshapen-like kinase 1 (Q8N4C8 whole entry, looked up): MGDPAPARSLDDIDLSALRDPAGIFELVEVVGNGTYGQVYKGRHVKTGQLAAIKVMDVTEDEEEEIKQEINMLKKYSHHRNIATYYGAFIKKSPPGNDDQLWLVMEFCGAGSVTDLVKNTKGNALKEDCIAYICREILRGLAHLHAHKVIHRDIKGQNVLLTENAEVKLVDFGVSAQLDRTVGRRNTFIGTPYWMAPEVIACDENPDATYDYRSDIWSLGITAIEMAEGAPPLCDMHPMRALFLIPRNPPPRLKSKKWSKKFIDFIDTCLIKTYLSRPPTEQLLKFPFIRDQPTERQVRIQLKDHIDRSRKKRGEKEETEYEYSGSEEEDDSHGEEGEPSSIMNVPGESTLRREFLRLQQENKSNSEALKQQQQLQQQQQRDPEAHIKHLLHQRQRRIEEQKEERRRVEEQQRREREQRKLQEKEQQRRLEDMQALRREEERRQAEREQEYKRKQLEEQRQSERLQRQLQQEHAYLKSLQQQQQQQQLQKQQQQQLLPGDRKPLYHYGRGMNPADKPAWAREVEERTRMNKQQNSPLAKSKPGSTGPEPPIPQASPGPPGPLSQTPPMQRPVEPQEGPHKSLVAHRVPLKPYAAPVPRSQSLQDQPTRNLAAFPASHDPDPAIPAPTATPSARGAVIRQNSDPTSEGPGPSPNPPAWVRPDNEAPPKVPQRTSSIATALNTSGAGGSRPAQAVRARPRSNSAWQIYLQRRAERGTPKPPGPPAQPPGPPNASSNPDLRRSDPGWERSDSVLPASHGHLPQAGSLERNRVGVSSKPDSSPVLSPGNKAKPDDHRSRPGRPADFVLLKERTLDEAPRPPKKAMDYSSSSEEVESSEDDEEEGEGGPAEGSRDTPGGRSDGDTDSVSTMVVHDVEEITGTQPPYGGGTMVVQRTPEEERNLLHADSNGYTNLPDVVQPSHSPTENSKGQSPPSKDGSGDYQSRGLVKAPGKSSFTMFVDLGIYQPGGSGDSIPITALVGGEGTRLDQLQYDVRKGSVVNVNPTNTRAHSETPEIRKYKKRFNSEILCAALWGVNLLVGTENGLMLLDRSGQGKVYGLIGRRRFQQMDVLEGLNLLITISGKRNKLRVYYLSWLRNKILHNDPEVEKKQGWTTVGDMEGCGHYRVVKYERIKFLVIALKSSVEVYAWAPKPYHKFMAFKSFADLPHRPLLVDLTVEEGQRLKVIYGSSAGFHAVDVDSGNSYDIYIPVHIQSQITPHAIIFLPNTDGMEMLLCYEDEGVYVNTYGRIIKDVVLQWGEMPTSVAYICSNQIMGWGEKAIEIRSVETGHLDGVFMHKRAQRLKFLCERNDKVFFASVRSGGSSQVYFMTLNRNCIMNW

% of control (Adenosine receptor A2a): 80%
Compound: CC(=O)c1cc(-c2ccccc2OCC2CC2)c2ncccn12

Compound: CN(C)CCOc1ccc(-c2nc(-c3ccncc3)c(-c3ccc4c(c3)CC/C4=N\O)[nH]2)cc1
% of control [1]: 94%

Compound: CNC(=O)Nc1ccc(-c2nc(N3CC4CCC(C3)O4)c3cnn(C4CCC5(CC4)OCCO5)c3n2)cc1
% of control (Misshapen-like kinase 1): 100%

Compound: N#Cc1cccc(-c2c[nH]c3ncnc(N4CCOCC4)c23)c1
% of control [2]: 62%

Compound: CCC(=O)N1CCN(c2ccc(-n3c(=O)ccc4cnc5ccc(-c6cnc7ccccc7c6)cc5c43)cc2C(F)(F)F)CC1
% of control [3]: 100%
